Measurements as given in ChEMBL document CHEMBL3045907, “Discovery and development of pyridalyl” (J Pestic Sci, 2012).

Tests used:
[1] = Toxicity in Cyprinidae (carp fish); format: ADME, organism-based; conditions: in vivo
[2] = Acute toxicity in Rattus norvegicus (rat) compound administered through inhalation; format: organism-based; conditions: in vivo, inhaled or intranasal
[3] = Acute toxicity in po dosed Rattus norvegicus (rat); format: organism-based; conditions: in vivo
[4] = Acute toxicity in Rattus norvegicus (rat) compound administered intradermally; format: organism-based; conditions: in vivo
[5] = Octanol-water partition co-efficient, log P of the compound at 20 degC; format: physicochemical
[6] = Solubility of the compound in water; format: physicochemical; conditions: buffer

For `FC(F)(F)c1ccc(OCCCOc2c(Cl)cc(OCC=C(Cl)Cl)cc2Cl)nc1` [PYRIDALYL], which LC50 [1] is on record?
The LC50 was > 10 µg/mL.

And the LC50 [2]?
The LC50 was > 2.01 µg/mL.

What about the LD50 [3] of the same compound?
The LD50 was > 5000 mg/kg.

And the LD50 [4]?
Its LD50 is > 2000 mg/kg.

And the logP [5]?
The logP was 8.1.

And the solubility [6]?
The solubility was 0.15 ppb.
